According to patent US6992079B2, “Substituted 11-phenyl-dibenzazepine compounds useful for the treatment or prevention of diseases characterized by abnormal cell proliferation” (President Fellows of Harvard College, priority 1997, dated 2006):
Read-outs that look alike come from different tables or passages of the source.

Key:
Format in all cases: cell-based
[1] = test system: NCI-H23
[2] = test system: RL-60 (TS); assay: In-Vitro Testing SRB panel: Leukemia
[3] = test system: M14; assay: In-Vitro Testing SRB panel: Melanoma
[4] = test system: HCT-15; assay: In-Vitro Testing SRB panel: Colon Cancer
[5] = test system: MOLT-4; assay: In-Vitro Testing SRB panel: Leukemia
[6] = test system: 786-0; assay: In-Vitro Testing SRB panel: Renal Cancer
[7] = test system: OVCAR-4; assay: In-Vitro Testing SRB panel: Ovarian Cancer
[8] = test system: SK-MEL-2; assay: In-Vitro Testing SRB panel: Melanoma
[9] = test system: MDA-MB-231/ATCC; assay: In-Vitro Testing SRB panel: Breast Cancer
[10] = test system: MMRU; assay: SRB antiproliferative assay; details: Homo sapiens, MMRU (Melanoma), 5% FCS/5 day incubation
Excerpt: (§1) The cells were passaged using Trypsin (Gibco).

[11] = test system: MDA-MB-23; assay: SRB antiproliferative assay; details: Homo sapiens; MDA-MB-23 (Breast); SRB; 5% FCS/5 day incubation; read-out: IC50
Excerpt: as §1

[12] = test system: HCT-116; assay: In-Vitro Testing SRB panel: Colon Cancer
[13] = test system: HT29; assay: In-Vitro Testing SRB panel: Colon Cancer
[14] = test system: T-47D; assay: In-Vitro Testing SRB panel: Breast Cancer
[15] = test system: DU-145; assay: In-Vitro Testing SRB panel: Prostate Cancer
[16] = test system: BT-549; assay: In-Vitro Testing SRB panel: Breast Cancer
[17] = test system: KM12; assay: In-Vitro Testing SRB panel: Colon Cancer
[18] = test system: OVCAR-5; assay: In-Vitro Testing SRB panel: Ovarian Cancer

COc1ccc2c(c1)CN(C(=O)c1ccc([N+](=O)[O-])cc1)c1ccc(Cl)cc1C2c1ccccc1Cl (stereo not shown) [Compound 30]
GI50 ([1]; Homo sapiens, NCI-H23): > 100 µM | CC50 ([1]; Homo sapiens, NCI-H23, read-out: LC50 (the source's name)): > 100 µM | TGI ([1]; NCI-H23): >1.00E−04 Molar | Percent Growth ([1]; NCI-H23, Log10 concentration −4.0 Molar): 55% | Percent Growth ([1]; NCI-H23, Log10 concentration −5.0 Molar): 60% | Percent Growth ([1]; NCI-H23, Log10 concentration −6.0 Molar): 84% | Percent Growth ([1]; NCI-H23, Log10 concentration −7.0 Molar): 97% | Percent Growth ([1]; NCI-H23, Log10 concentration −8.0 Molar): 93% | GI50 ([2]; Homo sapiens): 0.297 µM | CC50 ([2]; Homo sapiens, RL-60 (TB), read-out: LC50 (the source's name)): > 100 µM | TGI ([2]; RL-60 (TB)): >1.00E−04 Molar | Percent Growth ([2]; RL-60 (TB), Log10 concentration −4.0 Molar): 29% | Percent Growth ([2]; RL-60 (TB), Log10 concentration −5.0 Molar): 22% | Percent Growth ([2]; RL-60 (TB), Log10 concentration −6.0 Molar): 35% | Percent Growth ([2]; RL-60 (TB), Log10 concentration −7.0 Molar): 64% | Percent Growth ([2]; RL-60 (TB), Log10 concentration −8.0 Molar): 94% | GI50 ([3]; Homo sapiens, M14): 0.045 µM | CC50 ([3]; Homo sapiens, M14, read-out: LC50 (the source's name)): > 100 µM | TGI ([3]; M14): >1.00E−04 Molar | Percent Growth ([3]; M14, Log10 concentration −4.0 Molar): 30% | Percent Growth ([3]; M14, Log10 concentration −5.0 Molar): 37% | Percent Growth ([3]; M14, Log10 concentration −6.0 Molar): 75% | Percent Growth ([3]; M14, Log10 concentration −7.0 Molar): 93% | Percent Growth ([3]; M14, Log10 concentration −8.0 Molar): 99% | TGI ([4]; HCT-15): >1.00E−04 Molar | Percent Growth ([4]; HCT-15, Log10 concentration −4.0 Molar): 39% | Percent Growth ([4]; HCT-15, Log10 concentration −5.0 Molar): 40% | Percent Growth ([4]; HCT-15, Log10 concentration −6.0 Molar): 77% | Percent Growth ([4]; HCT-15, Log10 concentration −7.0 Molar): 98% | Percent Growth ([4]; HCT-15, Log10 concentration −8.0 Molar): 109% | GI50 ([4]; Homo sapiens, HCT-15): 5.28 µM | CC50 ([4]; Homo sapiens, HCT-15, read-out: LC50 (the source's name)): > 100 µM | GI50 ([5]; Homo sapiens, MOLT-4): 1.33 µM | CC50 ([5]; Homo sapiens, MOLT-4, read-out: LC50 (the source's name)): > 100 µM | TGI ([5]; MOLT-4): >1.00E−04 Molar | Percent Growth ([5]; MOLT-4, Log10 concentration −4.0 Molar): 13% | Percent Growth ([5]; MOLT-4, Log10 concentration −5.0 Molar): 23% | Percent Growth ([5]; MOLT-4, Log10 concentration −6.0 Molar): 54% | Percent Growth ([5]; MOLT-4, Log10 concentration −7.0 Molar): 89% | Percent Growth ([5]; MOLT-4, Log10 concentration −8.0 Molar): 103% | TGI ([6]; 786-0): >1.00E−04 Molar | Percent Growth ([6]; 786-0, Log10 concentration −4.0 Molar): 28% | Percent Growth ([6]; 786-0, Log10 concentration −5.0 Molar): 11% | Percent Growth ([6]; 786-0, Log10 concentration −6.0 Molar): 92% | Percent Growth ([6]; 786-0, Log10 concentration −7.0 Molar): 98% | Percent Growth ([6]; 786-0, Log10 concentration −8.0 Molar): 98% | GI50 ([6]; Homo sapiens, 786-0): 3.28 µM | CC50 ([6]; Homo sapiens, 786-0, read-out: LC50 (the source's name)): > 100 µM | GI50 ([7]; Homo sapiens, OVCAR-4): 1.86 µM | CC50 ([7]; Homo sapiens, OVCAR-4, read-out: LC50 (the source's name)): > 100 µM | TGI ([7]; OVCAR-4): 9.89E−06 Molar | Percent Growth ([7]; OVCAR-4, Log10 concentration −4.0 Molar): −9% | Percent Growth ([7]; OVCAR-4, Log10 concentration −5.0 Molar): 0% | Percent Growth ([7]; OVCAR-4, Log10 concentration −6.0 Molar): 69% | Percent Growth ([7]; OVCAR-4, Log10 concentration −7.0 Molar): 103% | Percent Growth ([7]; OVCAR-4, Log10 concentration −8.0 Molar): 109% | GI50 ([8]; Homo sapiens, SK-MEL-2): > 100 µM | CC50 ([8]; Homo sapiens, SK-MEL-2, read-out: LC50 (the source's name)): > 100 µM | TGI ([8]; SK-MEL-2): >1.00E−04 Molar | Percent Growth ([8]; SK-MEL-2, Log10 concentration −4.0 Molar): 71% | Percent Growth ([8]; SK-MEL-2, Log10 concentration −5.0 Molar): 74% | Percent Growth ([8]; SK-MEL-2, Log10 concentration −6.0 Molar): 95% | Percent Growth ([8]; SK-MEL-2, Log10 concentration −7.0 Molar): 94% | Percent Growth ([8]; SK-MEL-2, Log10 concentration −8.0 Molar): 102% | GI50 ([9]; Homo sapiens, MDA-MB-231): > 100 µM | CC50 ([9]; Homo sapiens, MDA-MB-231/ATCC, read-out: LC50 (the source's name)): > 100 µM | TGI ([9]; MDA-MB-231/ATCC): >1.00E−04 Molar | Percent Growth ([9]; MDA-MB-231/ATCC, Log10 concentration −4.0 Molar): 54% | Percent Growth ([9]; MDA-MB-231/ATCC, Log10 concentration −5.0 Molar): 54% | Percent Growth ([9]; MDA-MB-231/ATCC, Log10 concentration −6.0 Molar): 89% | Percent Growth ([9]; MDA-MB-231/ATCC, Log10 concentration −7.0 Molar): 92% | Percent Growth ([9]; MDA-MB-231/ATCC, Log10 concentration −8.0 Molar): 106% | IC50 [10]: 0.5 µM | IC50 [11]: 0.9 µM | TGI ([12]; HCT-116): 1.00E−04 Molar | Percent Growth ([12]; HCT-116, Log10 concentration −4.0 Molar): 22% | Percent Growth ([12]; HCT-116, Log10 concentration −5.0 Molar): 17% | Percent Growth ([12]; HCT-116, Log10 concentration −6.0 Molar): 63% | Percent Growth ([12]; HCT-116, Log10 concentration −7.0 Molar): 90% | Percent Growth ([12]; HCT-116, Log10 concentration −8.0 Molar): 97% | GI50 ([12]; Homo sapiens, HCT-116): 1.91 µM | CC50 ([12]; Homo sapiens, HCT-116, read-out: LC50 (the source's name)): > 100 µM | TGI ([13]; HT29): >1.00E−04 Molar | Percent Growth ([13]; HT29, Log10 concentration −4.0 Molar): 20% | Percent Growth ([13]; HT29, Log10 concentration −5.0 Molar): 22% | Percent Growth ([13]; HT29, Log10 concentration −6.0 Molar): 70% | Percent Growth ([13]; HT29, Log10 concentration −7.0 Molar): 93% | Percent Growth ([13]; HT29, Log10 concentration −8.0 Molar): 91% | GI50 ([13]; Homo sapiens, HT-29): 2.63 µM | CC50 ([13]; Homo sapiens, HT-29, HT29, read-out: LC50 (the source's name)): > 100 µM | GI50 ([14]; Homo sapiens, T47D): 2.87 µM | CC50 ([14]; Homo sapiens, T47D, T-47D, read-out: LC50 (the source's name)): > 100 µM | TGI ([14]; T-47D): >1.00E−04 Molar | Percent Growth ([14]; T-47D, Log10 concentration −4.0 Molar): 18% | Percent Growth ([14]; T-47D, Log10 concentration −5.0 Molar): 23% | Percent Growth ([14]; T-47D, Log10 concentration −6.0 Molar): 71% | Percent Growth ([14]; T-47D, Log10 concentration −7.0 Molar): 96% | Percent Growth ([14]; T-47D, Log10 concentration −8.0 Molar): 92% | TGI ([15]; DU-145): >1.00E−04 Molar | Percent Growth ([15]; DU-145, Log10 concentration −4.0 Molar): 31% | Percent Growth ([15]; DU-145, Log10 concentration −5.0 Molar): 38% | Percent Growth ([15]; DU-145, Log10 concentration −6.0 Molar): 95% | Percent Growth ([15]; DU-145, Log10 concentration −7.0 Molar): 98% | Percent Growth ([15]; DU-145, Log10 concentration −8.0 Molar): 98% | GI50 ([15]; Homo sapiens, DU-145): 6.24 µM | CC50 ([15]; Homo sapiens, DU-145, read-out: LC50 (the source's name)): > 100 µM | TGI ([16]; BT-549): >1.00E−04 Molar | Percent Growth ([16]; BT-549, Log10 concentration −4.0 Molar): 61% | Percent Growth ([16]; BT-549, Log10 concentration −5.0 Molar): 75% | Percent Growth ([16]; BT-549, Log10 concentration −6.0 Molar): 90% | Percent Growth ([16]; BT-549, Log10 concentration −7.0 Molar): 99% | Percent Growth ([16]; BT-549, Log10 concentration −8.0 Molar): 95% | GI50 ([16]; Homo sapiens, BT-549): > 100 µM | CC50 ([16]; Homo sapiens, BT-549, read-out: LC50 (the source's name)): > 100 µM | GI50 ([17]; Homo sapiens, KM12): 3.06 µM | CC50 ([17]; Homo sapiens, KM12, RM12, read-out: LC50 (the source's name)): > 100 µM | TGI ([17]; RM12): >1.00E−04 Molar | Percent Growth ([17]; RM12, Log10 concentration −4.0 Molar): 36% | Percent Growth ([17]; RM12, Log10 concentration −5.0 Molar): 41% | Percent Growth ([17]; RM12, Log10 concentration −6.0 Molar): 59% | Percent Growth ([17]; RM12, Log10 concentration −7.0 Molar): 91% | Percent Growth ([17]; RM12, Log10 concentration −8.0 Molar): 95% | GI50 ([18]; Homo sapiens, OVCAR-5): > 100 µM | CC50 ([18]; Homo sapiens, OVCAR-5, read-out: LC50 (the source's name)): > 100 µM | TGI ([18]; OVCAR-5): >1.00E−04 Molar | Percent Growth ([18]; OVCAR-5, Log10 concentration −4.0 Molar): 78% | Percent Growth ([18]; OVCAR-5, Log10 concentration −5.0 Molar): 86% | Percent Growth ([18]; OVCAR-5, Log10 concentration −6.0 Molar): 98% | Percent Growth ([18]; OVCAR-5, Log10 concentration −7.0 Molar): 106% | Percent Growth ([18]; OVCAR-5, Log10 concentration −8.0 Molar): 102%
